Measurements reported in US20080009418A1, “Selective Inhibitors” (Alchemia LTD., priority 2004, published 2008).

Legend:
Human δ-opioid (DOP) = target: T1, Human δ-opioid (DOP) (Homo sapiens, UniProt P41143); test: Radioligand binding, human δ-opioid (DOP) membranes, FlashPlate, [3H]-Bremazocine; conditions: compound at 10 μM; [3H]-Bremazocine
T1 construct: purchased Perkin Elmer Biosignal
Summary of the method: (§1)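 Cloned human receptor membranes were coated onto FlashPlate wells and incubated with radioligand and compound (added from a 0.5 mM DMSO daughter plate) for 1 hour at room temperature in the dark. Scintillation counting gave percent inhibition, with DMSO defining total and reference ligand defining non-specific binding.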

Human κ-Opioid (KOP) = target: T2, Human κ-Opioid (KOP) (Homo sapiens, UniProt P41145); test: Radioligand binding, human κ-opioid (KOP) membranes, filtration, [3H]-Diprenorphine; conditions: compound at 10 μM; [3H]-Diprenorphine
T2 construct: purchased Perkin Elmer Biosignal
Summary of the method: (§2)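 Filtration binding on cloned human receptor membranes (1 Unit/well), [125I]-Substance P for NK1 and [3H]-Diprenorphine for KOP, 1 h at room temperature. Filters PEI-presoaked, washed with cold 50 mM Tris-HCl pH 7.4, counted by scintillation; percent inhibition calculated, reference ligand defining non-specific binding.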

Human Melanocortin (MC3) = target: T3, Human Melanocortin (MC3) (Homo sapiens, UniProt P41968); test: Radioligand binding, human melanocortin MC3 membranes, FlashPlate, [125I]-NDP-αMSH; conditions: compound at 10 μM; [125I]-NDP-αMSH
T3 construct: purchased Perkin Elmer Biosignal
Summary of the method: as §1

Human Melanocortin (MC4) = target: T4, Human Melanocortin (MC4) (Homo sapiens, UniProt P32245); test: Radioligand binding, human melanocortin MC4 membranes, FlashPlate, [125I]-NDP-αMSH; conditions: compound at 10 μM; [125I]-NDP-αMSH
T4 construct: purchased Perkin Elmer Biosignal
Summary of the method: as §1

Human melanocortin (MC5) = target: T5, Human melanocortin (MC5) (Homo sapiens, UniProt P33032); test: Radioligand binding, human melanocortin MC5 membranes, FlashPlate, [125I]-NDP-αMSH; conditions: compound at 10 μM; [125I]-NDP-αMSH
T5 construct: purchased Perkin Elmer Biosignal
Summary of the method: as §1

[1] = target: T6, Human melanin-concentrating hormone (MCH1) (Homo sapiens, UniProt Q99705); test: Radioligand binding, human melanin-concentrating hormone MCH1 membranes, FlashPlate, [125I]-S36057; conditions: compound at 10 μM; [125I]-S36057
T6 construct: purchased Perkin Elmer Biosignal
Summary of the method: as §1

Human μ-opioid (MOP) = target: T7, Human μ-opioid (MOP) (Homo sapiens, UniProt P35372); test: Radioligand binding, human μ-opioid (MOP) membranes, FlashPlate, [3H]-Naloxone; conditions: compound at 10 μM; [3H]-Naloxone
T7 construct: purchased Perkin Elmer Biosignal
Summary of the method: as §1

Human neurokinin (NK1) = target: T8, Human neurokinin (NK1) (Homo sapiens, UniProt P25103); test: Radioligand binding, human neurokinin NK1 membranes, filtration, [125I]-Substance P; conditions: compound at 10 μM; [125I]-Substance P
T8 construct: purchased Perkin Elmer Biosignal
Summary of the method: as §2

[2] = target: T9, Human neuropeptide Y (NPY-Y1) (Homo sapiens, UniProt P25929); test: Radioligand binding, human neuropeptide Y NPY-Y1 membranes, FlashPlate, [125I]-PYY; conditions: compound at 10 μM; [125I]-PYY
T9 construct: purchased Perkin Elmer Biosignal
T9 sequence (P25929 1-384): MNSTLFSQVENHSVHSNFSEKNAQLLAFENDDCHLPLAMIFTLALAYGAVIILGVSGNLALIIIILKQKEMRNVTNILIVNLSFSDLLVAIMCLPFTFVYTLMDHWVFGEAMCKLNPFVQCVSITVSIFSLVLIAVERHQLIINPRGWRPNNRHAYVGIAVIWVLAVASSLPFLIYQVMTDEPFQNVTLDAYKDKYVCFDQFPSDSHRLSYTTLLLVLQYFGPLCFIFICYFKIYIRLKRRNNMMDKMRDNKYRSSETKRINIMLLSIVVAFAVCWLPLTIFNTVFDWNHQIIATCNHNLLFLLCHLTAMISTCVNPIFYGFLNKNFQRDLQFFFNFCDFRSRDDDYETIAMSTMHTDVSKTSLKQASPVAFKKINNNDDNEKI
Summary of the method: as §1

Human opioid (ORL1) = target: T10, Human opioid (ORL1) (Homo sapiens, UniProt P41146); test: Radioligand binding, human opioid ORL1 membranes, FlashPlate, [125I]-Nociceptin; conditions: compound at 10 μM; [125I]-Nociceptin
T10 construct: purchased Perkin Elmer Biosignal
Summary of the method: as §1

Mouse urotensin (mUR2) = target: T11, Mouse urotensin (mUR2) (Mus musculus, UniProt Q8VIH9); test: Radioligand binding, mouse urotensin mUR2 membranes, FlashPlate, [125I]-Urotensin II; conditions: compound at 10 μM; [125I]-Urotensin II
T11 construct: purchased Perkin Elmer Biosignal
T11 sequence (Q8VIH9 1-385): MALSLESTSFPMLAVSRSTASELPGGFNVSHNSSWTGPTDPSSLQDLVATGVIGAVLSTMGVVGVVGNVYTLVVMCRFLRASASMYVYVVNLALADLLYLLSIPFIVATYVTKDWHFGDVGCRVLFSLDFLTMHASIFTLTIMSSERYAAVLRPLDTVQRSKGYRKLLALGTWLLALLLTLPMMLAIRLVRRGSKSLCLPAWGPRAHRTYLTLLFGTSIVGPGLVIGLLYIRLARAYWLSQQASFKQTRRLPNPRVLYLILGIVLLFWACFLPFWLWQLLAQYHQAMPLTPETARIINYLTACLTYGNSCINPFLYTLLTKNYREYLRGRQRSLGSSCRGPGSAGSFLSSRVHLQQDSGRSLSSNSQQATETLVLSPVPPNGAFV
Summary of the method: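 Cloned mouse urotensin (mUR2) receptor membranes from Perkin Elmer Biosignal were immobilized in FlashPlate microplates using a proprietary coating. Each well got 19.5 μl buffer, then 0.5 μl of DMSO, reference ligand, or compound. Adding 5 μl of [125I]-Urotensin II, diluted to 5× final concentration in binding buffer, started binding. Plates were sealed with TopSeal-A and incubated 1 hour at room temperature in the dark. Wells were counted for 30 seconds each on a TopCount after a 60-second delay, and percentage inhibition was calculated.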

T8 sequence (P25103 whole entry): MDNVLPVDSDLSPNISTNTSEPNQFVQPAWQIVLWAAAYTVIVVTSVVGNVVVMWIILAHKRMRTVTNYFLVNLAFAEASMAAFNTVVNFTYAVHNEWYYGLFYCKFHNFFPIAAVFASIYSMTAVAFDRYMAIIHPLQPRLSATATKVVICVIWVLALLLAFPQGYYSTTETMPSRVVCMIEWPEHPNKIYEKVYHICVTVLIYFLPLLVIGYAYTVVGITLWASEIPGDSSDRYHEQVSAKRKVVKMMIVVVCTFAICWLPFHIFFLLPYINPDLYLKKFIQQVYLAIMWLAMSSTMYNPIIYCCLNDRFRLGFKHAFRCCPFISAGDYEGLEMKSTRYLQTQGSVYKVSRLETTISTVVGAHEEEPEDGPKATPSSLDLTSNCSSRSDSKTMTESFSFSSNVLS
T5 sequence (P33032 whole entry): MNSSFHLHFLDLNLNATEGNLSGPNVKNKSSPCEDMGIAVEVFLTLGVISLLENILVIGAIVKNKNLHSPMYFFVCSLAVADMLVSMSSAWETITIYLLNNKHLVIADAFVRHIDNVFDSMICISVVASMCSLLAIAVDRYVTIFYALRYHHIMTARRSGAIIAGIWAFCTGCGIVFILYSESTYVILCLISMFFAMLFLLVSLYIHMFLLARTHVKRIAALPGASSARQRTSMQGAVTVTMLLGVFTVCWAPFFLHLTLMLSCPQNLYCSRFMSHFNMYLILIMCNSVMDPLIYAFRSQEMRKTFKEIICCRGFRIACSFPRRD
T3 sequence (P41968 whole entry): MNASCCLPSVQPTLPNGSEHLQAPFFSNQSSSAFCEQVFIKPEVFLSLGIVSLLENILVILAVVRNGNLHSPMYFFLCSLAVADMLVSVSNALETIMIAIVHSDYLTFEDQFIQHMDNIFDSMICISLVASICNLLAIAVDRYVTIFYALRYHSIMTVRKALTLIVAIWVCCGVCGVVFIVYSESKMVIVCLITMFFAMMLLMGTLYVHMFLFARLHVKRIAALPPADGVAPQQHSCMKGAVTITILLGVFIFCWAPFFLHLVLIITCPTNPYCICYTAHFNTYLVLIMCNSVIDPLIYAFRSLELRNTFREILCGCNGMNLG
T2 sequence (P41145 whole entry): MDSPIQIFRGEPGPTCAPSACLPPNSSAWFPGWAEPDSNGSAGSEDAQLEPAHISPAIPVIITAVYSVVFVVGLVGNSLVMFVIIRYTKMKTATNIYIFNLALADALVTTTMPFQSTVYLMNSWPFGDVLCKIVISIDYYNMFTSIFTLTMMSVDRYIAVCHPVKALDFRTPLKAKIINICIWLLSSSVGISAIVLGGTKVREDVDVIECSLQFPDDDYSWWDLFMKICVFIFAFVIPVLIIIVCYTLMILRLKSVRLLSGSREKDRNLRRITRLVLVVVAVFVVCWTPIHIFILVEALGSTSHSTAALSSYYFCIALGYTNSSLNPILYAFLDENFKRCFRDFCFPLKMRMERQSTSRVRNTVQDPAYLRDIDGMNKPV
T7 sequence (P35372 whole entry): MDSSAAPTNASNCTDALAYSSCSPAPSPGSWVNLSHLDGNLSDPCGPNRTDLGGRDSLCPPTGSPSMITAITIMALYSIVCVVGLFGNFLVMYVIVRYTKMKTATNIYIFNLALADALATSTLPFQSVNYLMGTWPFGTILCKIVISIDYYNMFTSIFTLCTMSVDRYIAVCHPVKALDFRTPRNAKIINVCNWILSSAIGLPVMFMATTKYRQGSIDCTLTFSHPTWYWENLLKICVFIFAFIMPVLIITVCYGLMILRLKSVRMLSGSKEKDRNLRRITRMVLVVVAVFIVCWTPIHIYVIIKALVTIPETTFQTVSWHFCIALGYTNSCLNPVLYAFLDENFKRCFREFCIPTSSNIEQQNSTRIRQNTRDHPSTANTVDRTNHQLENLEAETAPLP
T10 sequence (P41146 whole entry): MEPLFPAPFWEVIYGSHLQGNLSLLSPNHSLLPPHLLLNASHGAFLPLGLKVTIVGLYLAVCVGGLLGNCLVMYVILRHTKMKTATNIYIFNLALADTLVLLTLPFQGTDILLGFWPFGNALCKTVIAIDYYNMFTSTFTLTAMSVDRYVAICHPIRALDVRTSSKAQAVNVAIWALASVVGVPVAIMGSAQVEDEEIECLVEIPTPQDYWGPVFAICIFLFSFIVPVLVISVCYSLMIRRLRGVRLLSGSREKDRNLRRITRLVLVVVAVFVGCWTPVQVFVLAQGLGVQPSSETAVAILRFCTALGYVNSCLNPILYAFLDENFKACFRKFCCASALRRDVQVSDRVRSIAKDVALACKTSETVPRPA
T4 sequence (P32245 whole entry): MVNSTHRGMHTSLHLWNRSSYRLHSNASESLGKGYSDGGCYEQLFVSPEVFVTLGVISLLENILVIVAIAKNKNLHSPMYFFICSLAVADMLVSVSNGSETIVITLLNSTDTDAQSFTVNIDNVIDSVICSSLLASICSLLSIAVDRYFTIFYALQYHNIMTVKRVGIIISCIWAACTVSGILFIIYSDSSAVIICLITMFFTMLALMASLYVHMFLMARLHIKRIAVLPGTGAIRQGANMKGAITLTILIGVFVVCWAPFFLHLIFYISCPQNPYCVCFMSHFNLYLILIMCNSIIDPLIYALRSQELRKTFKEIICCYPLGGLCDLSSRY
T1 sequence (P41143 whole entry): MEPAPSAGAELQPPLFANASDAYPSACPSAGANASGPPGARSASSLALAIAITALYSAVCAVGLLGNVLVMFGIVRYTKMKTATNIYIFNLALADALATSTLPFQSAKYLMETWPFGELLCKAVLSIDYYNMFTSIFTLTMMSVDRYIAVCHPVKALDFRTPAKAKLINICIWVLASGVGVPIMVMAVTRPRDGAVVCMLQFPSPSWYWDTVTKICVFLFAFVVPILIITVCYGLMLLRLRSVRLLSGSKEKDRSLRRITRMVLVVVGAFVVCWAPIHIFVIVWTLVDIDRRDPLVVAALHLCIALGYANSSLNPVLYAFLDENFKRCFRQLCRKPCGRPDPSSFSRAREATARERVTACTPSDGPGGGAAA
T6 sequence (Q99705 whole entry): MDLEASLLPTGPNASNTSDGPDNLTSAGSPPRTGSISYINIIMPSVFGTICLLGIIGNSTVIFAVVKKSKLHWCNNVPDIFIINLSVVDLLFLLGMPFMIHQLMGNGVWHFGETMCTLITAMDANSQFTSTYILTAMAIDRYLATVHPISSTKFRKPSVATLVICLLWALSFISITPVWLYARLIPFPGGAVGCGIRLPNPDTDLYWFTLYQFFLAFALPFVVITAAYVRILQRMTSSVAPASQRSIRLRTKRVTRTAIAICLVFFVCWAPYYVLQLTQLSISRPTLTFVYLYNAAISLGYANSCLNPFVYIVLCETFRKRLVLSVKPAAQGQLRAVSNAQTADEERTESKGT

Structure (SMILES)	A1: inhibition of radioligand binding, human δ-opioid (DOP) (Human δ-opioid (DOP))	A2: inhibition of radioligand binding, human κ-opioid (KOP) (Human κ-Opioid (KOP))	A3: inhibition of radioligand binding, human melanocortin (MC3) (Human Melanocortin (MC3))	A4: inhibition of radioligand binding, human melanocortin (MC4) (Human Melanocortin (MC4))	A5: inhibition of radioligand binding, human melanocortin (MC5) (Human melanocortin (MC5))	A6: inhibition of radioligand binding, human melanin-concentrating hormone (MCH1) [1]	A7: inhibition of radioligand binding, human μ-opioid (MOP) (Human μ-opioid (MOP))	A8: inhibition of radioligand binding, human neurokinin (NK1) (Human neurokinin (NK1))	A9: inhibition of radioligand binding, human neuropeptide Y (NPY-Y1) [2]	A10: inhibition of radioligand binding, human opioid (ORL1) (Human opioid (ORL1))	A11: inhibition of radioligand binding, mouse urotensin (mUR2) (Mouse urotensin (mUR2))
CSC1OC(COCc2ccccc2)C(O)C(OCc2ccc3ccccc3c2)C1NC(=O)CN (stereo not shown) [compound 301]	− (“−” indicates less than 50% inhibition at 10 μM)	− (“−” indicates less than 50% inhibition at 10 μM)	− (“−” indicates less than 50% inhibition at 10 μM)	− (“−” indicates less than 50% inhibition at 10 μM)	− (“−” indicates less than 50% inhibition at 10 μM)	− (“−” indicates less than 50% inhibition at 10 μM)	− (“−” indicates less than 50% inhibition at 10 μM)	+ (“+” indicates greater than 50% inhibition at 10 μM)	− (“−” indicates less than 50% inhibition at 10 μM)	− (“−” indicates less than 50% inhibition at 10 μM)	− (“−” indicates less than 50% inhibition at 10 μM)
CSC1OC(COCc2ccccc2)C(O)C(OCc2ccc3ccccc3c2)C1NC(=O)CNC(=N)N (stereo not shown) [compound 302]	− (“−” indicates less than 50% inhibition at 10 μM)	− (“−” indicates less than 50% inhibition at 10 μM)	− (“−” indicates less than 50% inhibition at 10 μM)	+ (“+” indicates greater than 50% inhibition at 10 μM)	+ (“+” indicates greater than 50% inhibition at 10 μM)	− (“−” indicates less than 50% inhibition at 10 μM)	− (“−” indicates less than 50% inhibition at 10 μM)	+ (“+” indicates greater than 50% inhibition at 10 μM)	− (“−” indicates less than 50% inhibition at 10 μM)	− (“−” indicates less than 50% inhibition at 10 μM)	− (“−” indicates less than 50% inhibition at 10 μM)
CSC1OC(COCc2ccccc2)C(O)C(OCc2ccc3ccccc3c2)C1NC(=O)CCNC(=N)N (stereo not shown) [compound 303]	− (“−” indicates less than 50% inhibition at 10 μM)	− (“−” indicates less than 50% inhibition at 10 μM)	− (“−” indicates less than 50% inhibition at 10 μM)	+ (“+” indicates greater than 50% inhibition at 10 μM)	+ (“+” indicates greater than 50% inhibition at 10 μM)	− (“−” indicates less than 50% inhibition at 10 μM)	− (“−” indicates less than 50% inhibition at 10 μM)	+ (“+” indicates greater than 50% inhibition at 10 μM)	− (“−” indicates less than 50% inhibition at 10 μM)	− (“−” indicates less than 50% inhibition at 10 μM)	− (“−” indicates less than 50% inhibition at 10 μM)
CSC1OC(COCc2ccccc2)C(O)C(OCc2ccc3ccccc3c2)C1NC(=O)CCCN (stereo not shown) [compound 304]	− (“−” indicates less than 50% inhibition at 10 μM)	− (“−” indicates less than 50% inhibition at 10 μM)	− (“−” indicates less than 50% inhibition at 10 μM)	− (“−” indicates less than 50% inhibition at 10 μM)	− (“−” indicates less than 50% inhibition at 10 μM)	− (“−” indicates less than 50% inhibition at 10 μM)	− (“−” indicates less than 50% inhibition at 10 μM)	+ (“+” indicates greater than 50% inhibition at 10 μM)	− (“−” indicates less than 50% inhibition at 10 μM)	− (“−” indicates less than 50% inhibition at 10 μM)	− (“−” indicates less than 50% inhibition at 10 μM)
CSC1OC(COCc2ccccc2)C(O)C(OCc2ccc3ccccc3c2)C1NC(=O)CCCNC(=N)N (stereo not shown) [compound 305]	− (“−” indicates less than 50% inhibition at 10 μM)	− (“−” indicates less than 50% inhibition at 10 μM)	− (“−” indicates less than 50% inhibition at 10 μM)	− (“−” indicates less than 50% inhibition at 10 μM)	+ (“+” indicates greater than 50% inhibition at 10 μM)	− (“−” indicates less than 50% inhibition at 10 μM)	− (“−” indicates less than 50% inhibition at 10 μM)	+ (“+” indicates greater than 50% inhibition at 10 μM)	− (“−” indicates less than 50% inhibition at 10 μM)	− (“−” indicates less than 50% inhibition at 10 μM)	− (“−” indicates less than 50% inhibition at 10 μM)
